Data as given in patent US20240327415A1, “Multicomponent Complexes, Including Salts, Crystalline Forms, and Hydrates and Solvates of ENT1 Inhibitors” (iTeos Belgium SA, priority 2023, published 2024).
Where a name gives a salt, the structure may show the parent alone.

Columns and labels:
Format in all cases: physicochemical
[1] = Dynamic Vapor Sorption (DVS)
Procedure: (§1) METHOD A: In Example 11, approximately 5-15 mg of sample was placed into a mesh vapor sorption balance pan and loaded into either a DVS Intrinsic or DVS Advantage dynamic vapor sorption balance by Surface Measurement Systems. The sample was subjected to a ramping profile from 40-90% relative humidity (RH) at 10% increments, maintaining the sample at each step until a stable weight had been achieved (dm/dt 0.004%, minimum step length 30 minutes, maximum step length 500 minutes) at 25° C. After completion of the sorption cycle, the sample was dried using the same procedure to 0% RH and then a second sorption cycle back to 40% RH was carried out. Two cycles were performed. The weight change during the sorption/desorption cycles were plotted, allowing the hygroscopic nature of the sample to be determined. XRPD analysis was then carried out on the residual solid.
as §1, with “B:” for “A:”, “Examples 2A, 3, 14, and 17,” for “Example 11,”, “10-20” for “5-15”, “determined.” for “determined. XRPD analysis was then carried out on the residual solid.”
as §1, with “Approximately 10-20” for “METHOD A: In Example 11, approximately 5-15”, “RH” for “relative humidity (RH)”, “min,” for “minutes,”, “min)” for “minutes)”, “determined.” for “determined. XRPD analysis was then carried out on the residual solid.”

[2] = Variable Humidity X-Ray Powder Diffraction (VH-XRPD); parameters: key to VH-XRPD XRPD Results: A = amorphous; 1 = Form 1 Compound 1 hydrogen chloride; PC = poorly crystalline
Procedure: (§2) In the examples below, VH-XRPD analysis was carried out on a Philips X'Pert Pro Multipurpose diffractometer equipped with a humidity chamber. The samples were scanned between 4 and 36° 2θ using Cu K radiation (α1λ=1.54060 Å; α2=1.54443 Å; β=1.39225 Å; α1: α2 ratio=0.5; most, if not all, B radiation is removed from the beam using an X-ray mirror) running in Bragg-Brentano geometry (step size 0.008° 2θ) using 40 kV/40 mA generator settings. Measurements were carried out from 2-90% RH, with a final measurement taken at 40% RH.
as §2, with “VH-XRPD” for “In the examples below, VH-XRPD”, “radiation (α1 λ=1.54060” for “radiation (α1λ=1.54060”, “Å; α1:α2” for “Å; α1: α2”, “all, β” for “all, B”, “from 6-90% relative humidity (RH),” for “from 2-90% RH,”

[3] = salt screen, XRPD of damp, dried and 40° C./75% RH stored samples (Salt Preparation Methods 1 and 2); parameters: key: A: amorphous; Crystalline Form 10 mono(hydrogen sulfate); details: Sulfuric Acid, 1 equiv.
Procedure: (§3) Salt Preparation Method 1: Approximately 25 mg of Compound 1 (free base) was weighed out into 1.5 mL screw-cap vials and a stirrer bar was added. For solid counterions, the appropriate amount of acid (1.0 or 2.0 equiv.) was weighed into separate 1.5 mL screw-cap vials. 100 μL of the appropriate solvent system was added to both the Compound 1 and the solid counterions. Stock solutions of liquid counterions were prepared, such that 100 μL contained 1.0 or 2.0 equiv. of acid. See counterion and solvent lists in Table 60 and Table 61 respectively.
(§4) The samples were stirred at 40° C. for 5-10 min and then the acid solutions were added to Compound 1, rinsing out the transfer vial with a further 50 μL of solvent. […] Experiments were temperature cycled between 40° C. and 5° C. (1 h hold; 0.1° C./min ramp/cool) for ca. 24-68 h. Anti-solvent addition (ASA) was carried out to slurries at 5° C. then experiments were heated to 30° C. over 1 h. ASA was carried out at 30° C. or 40° C. where clear solutions or gums were observed.
(§5) Temperature cycling was then continued for ca. 16-69 h, followed by further ASA and temperature cycling if required. Material was isolated at 5° C. and analyzed damp by XRPD. All isolated material was dried under vacuum at ca. 40° C. for ca. 17-91 h then re-analyzed by XRPD. The XRPD plate was stored at 40° C./75% RH for 24-48 h and then samples re-analyzed. Solutions were stored uncapped at ambient temperature to evaporate. Any residual solids were analyzed by XRPD.
(§6) Salt Preparation Method 2: The general procedure adopted in preparing the potential salts is outlined below. A known mass of Compound 1 (free base) and a known volume of the appropriate solvent system were added to 20 mL scintillation vials. The required mol. equiv. of the appropriate counterions were added to the vials as solutions or slurries in the corresponding solvent system.
(§7) The experiments were stirred at 40° C. for ca. 1 h, and then temperature cycled between 40° C. and 5° C. with 0.1° C./min ramp and 1 h hold between each step. Anti-solvent additions and subsequent slurrying at 5° C. were employed in order to facilitate crystallization. […] The damp and dried solids were subsampled and analyzed by XRPD. Where applicable, the dried solids were stored at 40° C./75% RH for 24-48 h in order to improve the crystallinity and/or facilitate solid form conversion to the desired form.

[4] = as above; parameters: key: A = amorphous; Evap. = isolated via evaporation; details: p-Toluenesulfonic acid
Procedure: as §3, §4, §5, §6, §7

[5] = as above; parameters: key to XRPD Analysis Damp/Dry: A = amorphous; Evap. = isolated via evaporation; details: p-Toluenesulfonic acid, (evap.)
Procedure: as §3, §4, §5, §6, §7

[6] = 1 equiv., Acetonitrile, AS tBME
[7] = 1 equiv., Ethyl acetate, AS Heptane
[8] = 1 equiv., IPA:H2O (75:25% v/v), AS tBME
[9] = 2 equiv., Acetonitrile, AS tBME
[10] = 2 equiv., Ethyl acetate, AS Heptane
[11] = 2 equiv., IPA:H2O (75:25% v/v), AS tBME

## COc1cc(C(=O)O[C@@H]2CCCOc3cc(cc(OC)c3OC)C(=O)NCCCN3CCCN(CC2)CC3)cc(OC)c1OC.Cl.Cl
[1]; 25° C.
  hygroscopicity: moderate-high hygroscopicity
[1]; 25° C. (fumarate: at 20% RH)
  hysteresis between the sorption and desorption cycles (DVS): ca. 1.3%
[1]; DVS at 25° C.
  post-DVS sample (XRPD / appearance): gum-like material
[1]; between 0-80% RH, second sorption cycle, 25° C.
  moisture uptake (DVS): 18%
[1]; between 40-80% RH, first sorption cycle, 25° C.
  moisture uptake (DVS): ca. 5%
[1]; between 80-90% RH, 25° C.
  moisture uptake (DVS): 9%
[2]
  relative humidity range in which the form is retained (VH-XRPD): 7-80 % RH
[2]; Desorption (1st), 7% RH, hold 60 min
  VH-XRPD XRPD Results: 1
[2]; Desorption (1st), 10% RH, hold 60 min
  VH-XRPD XRPD Results: 1
[2]; Desorption (1st), 20% RH, hold 960 min
  VH-XRPD XRPD Results: 1
[2]; Desorption (1st), 40% RH, hold 60 min
  VH-XRPD XRPD Results: 1
[2]; Desorption (2nd), 40% RH, hold 60 min
  VH-XRPD XRPD Results: 1
[2]; Desorption (2nd), 60% RH, hold 60 min
  VH-XRPD XRPD Results: 1
[2]; Sorption, 10% RH, hold 60 min
  VH-XRPD XRPD Results: 1
[2]; Sorption, 20% RH, hold 60 min
  VH-XRPD XRPD Results: 1
[2]; Sorption, 40% RH, hold 60 min
  VH-XRPD XRPD Results: 1
[2]; Sorption, 60% RH, hold 60 min
  VH-XRPD XRPD Results: 1
[2]; Sorption, 70% RH, hold 60 min
  VH-XRPD XRPD Results: 1
[2]; Sorption, 80% RH, hold 60 min
  VH-XRPD XRPD Results: 1

## COc1cc(C(=O)O[C@@H]2CCCOc3cc(cc(OC)c3OC)C(=O)NCCCN3CCCN(CC2)CC3)cc(OC)c1OC [Compound 1 mono(hydrogen sulfate)]
[3]; Acetonitrile, AS tBME
  XRPD Analysis 40° C. 75% RH: A
  XRPD Analysis Damp: A
  XRPD Analysis Dry: A
[3]; Ethanol, AS Heptane
  XRPD Analysis 40° C. 75% RH: A
  XRPD Analysis Damp: A
  XRPD Analysis Dry: A
[3]; Ethyl acetate, AS Heptane
  XRPD Analysis 40° C. 75% RH: A
  XRPD Analysis Damp: A
  XRPD Analysis Dry: A
[3]; IPA:H2O (75:25% v/v), AS tBME
  XRPD Analysis 40° C. 75% RH: 10
  XRPD Analysis Damp: A
  XRPD Analysis Dry: A
[3]; MEK, AS Heptane
  XRPD Analysis 40° C. 75% RH: 10
  XRPD Analysis Damp: A
  XRPD Analysis Dry: A
[3]; THF, AS Heptane
  XRPD Analysis 40° C. 75% RH: A
  XRPD Analysis Damp: A
  XRPD Analysis Dry: A

## COc1cc(C(=O)O[C@@H]2CCCOc3cc(cc(OC)c3OC)C(=O)NCCCN3CCCN(CC2)CC3)cc(OC)c1OC.O=S(=O)(O)O.O=S(=O)(O)O [crystalline Form 5 Compound 1 di(hydrogen sulfate)]
[2]; Form 3: after extended exposure
  relative humidity at which conversion to crystalline Form 2 Compound 1 di(hydrogen sulfate) trihydrate is observed: ≥ 10 % RH

## Cc1ccc(S(=O)(=O)O)cc1 [p-Toluenesulfonic acid, 1 equiv.]
[4]; [6]
  XRPD Analysis 40° C. 75% RH: A
  XRPD Analysis Damp: A
  XRPD Analysis Dry: A
[4]; 1 equiv., Ethanol, AS Heptane
  XRPD Analysis 40° C. 75% RH: A
[4]; [7]
  XRPD Analysis 40° C. 75% RH: A
  XRPD Analysis Damp: A
  XRPD Analysis Dry: A
[4]; [8]
  XRPD Analysis 40° C. 75% RH: A
[4]; 1 equiv., MEK, AS Heptane
  XRPD Analysis 40° C. 75% RH: A
  XRPD Analysis Damp: A
  XRPD Analysis Dry: A
[4]; 1 equiv., THF, AS Heptane
  XRPD Analysis 40° C. 75% RH: A
  XRPD Analysis Damp: A
  XRPD Analysis Dry: A
[5]; 1 equiv., Ethanol, AS Heptane
  XRPD Analysis Damp/Dry: A (evap.)
[5]; [8]
  XRPD Analysis Damp/Dry: A (evap.)

## Cc1ccc(S(=O)(=O)O)cc1 [p-Toluenesulfonic acid, 2 equiv.]
[4]; [9]
  XRPD Analysis 40° C. 75% RH: A
  XRPD Analysis Damp: A
  XRPD Analysis Dry: A
[4]; 2 equiv., Ethanol, AS Heptane
  XRPD Analysis 40° C. 75% RH: A
  XRPD Analysis Damp: A
  XRPD Analysis Dry: A
[4]; [10]
  XRPD Analysis 40° C. 75% RH: A
  XRPD Analysis Damp: A
  XRPD Analysis Dry: A
[4]; [11]
  XRPD Analysis 40° C. 75% RH: A
[4]; 2 equiv., MEK, AS Heptane
  XRPD Analysis 40° C. 75% RH: A
  XRPD Analysis Damp: A
  XRPD Analysis Dry: A
[4]; 2 equiv., THF, AS Heptane
  XRPD Analysis 40° C. 75% RH: A
  XRPD Analysis Damp: A
  XRPD Analysis Dry: A
[5]; [11]
  XRPD Analysis Damp/Dry: A (evap.)
